Test results reported in PMC6219506, “Onsite GTP fuelling via DYNAMO1 drives division of mitochondria and peroxisomes” (Nature Communications, 2018).
One block for each compound: values may come before it.

Assays:
DYNAMO1 = molecular target: T1, DYNAMO1 (Cyanidioschyzon merolae, UniProt M1USP1); experiment: LC-ESI-MS/MS of nucleotides (nucleoside diphosphate kinase activity); assay type: biochemical; conditions: 100 nM enzyme, 37 °C, 3 min
T1 construct: gene CYME_CML110C; open reading frame in pGEX6p-1, GST tag cut off with PreScission protease, E. coli XL-1 Blue; 17 kDa; tetramer
T1 sequence (M1USP1 1-153): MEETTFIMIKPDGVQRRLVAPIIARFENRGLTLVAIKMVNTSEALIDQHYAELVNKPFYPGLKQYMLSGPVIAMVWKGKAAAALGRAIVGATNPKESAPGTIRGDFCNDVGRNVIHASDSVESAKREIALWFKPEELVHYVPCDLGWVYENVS

[1] = molecular target: recombinant DYNAMO1 (dynamin-based ring motive-force organizer 1), GST removed (Cyanidioschyzon merolae); experiment: SEC; 1 μg purified recombinant DYNAMO1 on a Sepharose 6 10/300 GL column, AKTA prime; standards thyroglobulin, γ-globulin, ovalbumin
DYNAMO1-Dnm1 string [2] = molecular target: T2, DYNAMO1-Dnm1 string (Cyanidioschyzon merolae, UniProt A0A125YLX6); experiment: malachite green phosphate release (GTPase activity); assay type: biochemical; conditions: 20 mM HEPES, pH 7.5, 30 mM KCl, 1 mM MgCl2, 1 mM DTT; 37 °C; DYNAMO1 at half the amount of Dnm1
T2 construct: gene CYME_CME019C; with Nucleoside diphosphate kinase-like protein DYNAMO1

DYNAMO1-Dnm1 string [3] = molecular target: T2, DYNAMO1-Dnm1 string; experiment: as above; assay type: biochemical; conditions: 20 mM HEPES, pH 7.5, 30 mM KCl, 1 mM MgCl2, 1 mM DTT; 37 °C; DYNAMO1 at half the amount of Dnm1; remark: listed apart in the source

T2 sequence (A0A125YLX6 entry or part of it, one chain of several): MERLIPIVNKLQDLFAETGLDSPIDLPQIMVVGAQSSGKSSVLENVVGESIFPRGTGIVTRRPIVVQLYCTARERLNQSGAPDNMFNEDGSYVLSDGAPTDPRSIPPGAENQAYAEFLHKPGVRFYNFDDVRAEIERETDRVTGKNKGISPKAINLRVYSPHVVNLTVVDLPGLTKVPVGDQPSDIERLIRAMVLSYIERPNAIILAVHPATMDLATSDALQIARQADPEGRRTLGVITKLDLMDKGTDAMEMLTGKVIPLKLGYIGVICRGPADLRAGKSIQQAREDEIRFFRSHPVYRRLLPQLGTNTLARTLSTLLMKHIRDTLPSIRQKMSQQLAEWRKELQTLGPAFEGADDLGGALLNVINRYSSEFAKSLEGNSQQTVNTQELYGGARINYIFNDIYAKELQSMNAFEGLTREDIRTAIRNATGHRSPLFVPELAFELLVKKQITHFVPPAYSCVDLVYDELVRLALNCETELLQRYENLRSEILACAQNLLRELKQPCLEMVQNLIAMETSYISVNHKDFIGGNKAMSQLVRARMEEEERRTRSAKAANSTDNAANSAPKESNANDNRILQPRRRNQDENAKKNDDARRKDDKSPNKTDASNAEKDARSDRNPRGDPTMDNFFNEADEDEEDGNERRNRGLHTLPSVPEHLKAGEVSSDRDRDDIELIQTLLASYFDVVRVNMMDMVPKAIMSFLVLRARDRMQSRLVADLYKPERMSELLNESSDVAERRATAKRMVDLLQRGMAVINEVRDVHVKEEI

Compound: Nc1nc2c(ncn2[C@@H]2O[C@H](COP(=O)(O)OP(=O)(O)O)[C@@H](O)[C@H]2O)c(=O)[nH]1 [GDP]
- LC-ESI-MS/MS of nucleotides (nucleoside diphosphate kinase activity) (DYNAMO1; co-substrate ATP): generated GTP upon addition of ATP plus GDP (Fig. 1e, f)

Compound: Nc1ncnc2c1ncn2[C@@H]1O[C@H](COP(=O)(O)OP(=O)(O)OP(=O)(O)O)[C@@H](O)[C@H]1O [ATP]
- LC-ESI-MS/MS of nucleotides (nucleoside diphosphate kinase activity) (DYNAMO1; co-substrate GDP): generated GTP upon addition of ATP plus GDP (Fig. 1e, f)

- stoichiometry N [1]: 4
Compound: recombinant DYNAMO1 (dynamin-based ring motive-force organizer 1), GST removed (natural protein)

Compound: Nc1nc2c(ncn2[C@@H]2O[C@H](COP(=O)(O)OP(=O)(O)OP(=O)(O)O)[C@@H](O)[C@H]2O)c(=O)[nH]1 [GTP]
- malachite green phosphate release (GTPase activity) (DYNAMO1-Dnm1 string [2]): the GTPase activity of Dnm1 was higher in DYNAMO1-Dnm1 and DYNAMO1 H116D-Dnm1 strings
- malachite green phosphate release (GTPase activity) (DYNAMO1-Dnm1 string [3]): the GTPase activity of Dnm1 was higher in DYNAMO1-Dnm1 and DYNAMO1 H116D-Dnm1 strings
